Data taken from patent publication US10370356B2, “Pyridinone dicarboxamide for use as bromodomain inhibitors” (GlaxoSmithKline Intellectual Property (No. 2) Limited, priority 2015, dated 2019).
Counter-ions that a name gives are not always drawn. Like-named read-outs stand apart in the source and are kept apart here.

What was measured:
[1] = system: BET family (BRD2, BRD3, BRD4 and BRDT) tandem bromodomain proteins; assay: Fluorescence Polarisation binding of Reference Compound X to single and double mutant tandem BET proteins; parameters: species or system Human
Method: The competition of the compounds of formula (I) with Reference Compound X for binding to the BET family (BRD2, BRD3, BRD4 and BRDT) was assessed using protein truncates spanning both bromodomain 1 (BD1) and bromodomain 2 (BD2). In order to monitor differential binding to either BD1 or BD2, single residue mutations of key tyrosines to alanine were made in the acetyl lysine binding pockets. To validate this approach, a double residue mutant tandem domain protein was produced for each of the BET family members. Utilising a Fluorescence Polarisation approach, binding affinities for each of the single and double mutants for Reference Compound X were determined. […] The affinities of the single mutated bromdomain tandem proteins for Reference Compound X were equi-potent with the corresponding non-mutated BET protein. […] In the TR-FRET competition assay, Reference Compound X is used at a concentration that is equivalent to the Kd for the non-mutated bromodomain, which ensures that no binding at the mutated bromodomain is detected. […]

[2] = target: T1, BRD4 BD2 (Homo sapiens, UniProt O60885, Y97A); assay: BRD4 BD2 mutant TR-FRET competition assay; assay type: binding
T1 construct: BRD4 (1-477) (Y97A) and (Y390A); made in house; host or cells: E. coli (pET15b vector)

[3] = read-out: pIC50 in the BRD4 BD2 assay (converted)

For `COc1ccc2c(c1)C(c1ccc(Cl)cc1)=N[C@@H](CC(=O)NCCCCCNC(=O)CCCCCC1(C)/C(=C/C=C/C=C/C3=[N+](CCCCS(=O)(=O)O)c4ccc(S(=O)(=O)O)cc4C3(C)C)N(CCCCS(=O)(=O)[O-])c3ccc(S(=O)(=O)O)cc31)c1nnc(C)n1-2` (some centres unmarked) [Reference Compound X], the “reduction in Kd” value ([1]; double mutant tandem proteins versus non mutated, wild type tandem BET proteins) was greater than 1000 fold and the “reduction of the Kd of the interaction between the mutated bromodomain and Reference Compound X” value ([1]; single mutations of Tyrosine to Alanine) was greater than 1000 fold.

In the case of `CNC(=O)c1cc(C(=O)NCC2CCOCC2)cn(Cc2ccccc2)c1=O` [Example 49, 1-Benzyl-N^3-methyl-2-oxo-N^5-((tetrahydro-2H-pyran-4-yl)methyl)-1,2-dihydroopyridine-3,5-dicarboxamide], the IC50 [2, 3] is reported as 100 to 1000 nM.

`CNC(=O)c1cc(C(=O)NCCCC2CCCN(CCF)C2)cn(Cc2ccccc2)c1=O` (centres unmarked) [Example 71] showed an IC50 [2, 3] of no more than 100 nM.

`CNC(=O)c1cc(C(=O)NCCC[C@H]2OC[C@H](N)CO2)cn(Cc2ccccc2)c1=O` [Example 88, N^5-(3-((2r,5r)-5-Amino-1,3-dioxan-2-yl)propyl)-1-benzyl-N^3-methyl-2-oxo-1,2-dihydropyridine-3,5-dicarboxamide] was tested, and the IC50 ([2]; average of N recorded values, read-out: BRD4 BD2 IC50 (average value) (converted)) was 50.1 nM and the IC50 [2, 3] was no more than 100 nM.

Molecule `CNC(=O)c1cc(C(=O)NCCC2CCN(C(=O)OC(C)(C)C)CC2)cn(Cc2ccccc2)c1=O` [Example 32, tert-Butyl 4-(2-(1-benzyl-5-(methylcarbamoyl)-6-oxo-1,6-dihydropyridine-3-carboxamido)ethyl)piperidine-1-carboxylate] has an IC50 [2, 3] of 100 to 1000 nM.

With `CCNC(=O)c1cc(C(=O)NCCC[C@@H]2CNCCO2)cn(Cc2ccccc2)c1=O` [Example 84, (R)-1-benzyl-N^3-ethyl-N^5-(3-(morpholin-2-yl)propyl)-2-oxo-1,2-dihydropyridine-3,5-dicarboxamide] the IC50 [2, 3] was no more than 100 nM.

Work on `CNC(=O)c1cc(C(=O)N[C@H]2[C@@H]3CN(CCN)C[C@@H]32)cn(Cc2cccc3[nH]ccc23)c1=O` [Example 86, 1-((1H-Indol-4-yl)methyl)-N^5-((1R,5S,6s)-3-(2-aminoethyl)-3-azabicyclo[3.1.0]hexan-6-yl)-N^3-methyl-2-oxo-1,2-dihydropyridine-3,5-dicarboxamide] yielded an IC50 [2, 3] of no more than 100 nM.

For `CNC(=O)c1cc(C(=O)NCCC2CCCN(C(=O)OC(C)(C)C)C2)cn(Cc2ccccc2)c1=O` (centres unmarked) [Example 38, tert-Butyl 3-(2-(1-benzyl-5-(methylcarbamoyl)-6-oxo-1,6-dihydropyridine-3-carboxamido)ethyl)piperidine-1-carbxylate], the IC50 [2, 3] was 1000 to 100000 nM.

Work on `CNC(=O)c1cc(C(=O)NCCCN2CCCCC2)cn(Cc2ccccc2)c1=O` [Example 45, 1-Benzyl-N^3-methyl-2-oxo-N^5-(3-(piperidin-1-yl)propyl)-1,2-dihydropyridine-3,5-dicarboxamide hydrochloride] yielded an IC50 [2, 3] of 100 to 1000 nM.
